Here are results for one compound from patent publication EP3626820A1, “ANTICANCER COMPOSITIONS CONTAINING MIRNA MIMICS AND USES THEREOF” (Fundación Imdea Nanociencia, priority 2018, dated 2020).

By IC50 is commonly meant the point on the concentration scale where inhibition reaches its midpoint.

Test [1] relates to Mel 202 cells. In words: alamarBlue cell viability assay. The following applies: Mel202, SN38 incubated 24 h, alamarBlue after additional 24 h. The class given is cell-based. Here is the method:
Mel 202 cells were cultured in RPMI medium with 10 % fetal bovine serum (FBS), 1 % […]-Penicillin and 1 % L-Glutamine at 37 °C in an incubator. All the procedures were performed inside a laminar flow hood Telstar CV-30/70. Cells were grown in 24 wells plates (30000 cells).
stock solution of Resazurin sodium salt (1 mg/ml) in PBS was diluted 1 % (v/v) in complete RPMI. After incubation 3 h with the cells, the fluorescence was measured in a plate reader Synergy H4 Hybrid reader (BioTEK). Excitation (Ex) 550 nm; Emission (Em) 590 nm.
50 µl OptiMem was mixed with oligonucleotides (14, 15, 16, 17) or DNA mix 1. Then, it was mixed with 1 µl Lipofectamine 2000 in 50 µl optiMEM. The final mixture was incubated for 20 min and then 100 µl was added to cells. The final concentration of 14, 15, 16, 17 or DNA mix 1 was 140 nM. After 24 h the cells were washed 3 times with saline phosphate buffer (PBS) and complete medium was added.
SN38 stock solution was prepared at 100 µM in DMSO. Then different concentrations of SN38 (100 nM, 50 nM, 25 nM) were prepared in complete medium. It was incubated 24 h with the cells, then washed with PBS. After additional 24 h, the alamarBlue assay was carried out. […]
A volume of 100 µ L functionalized AuNPs were added in optiMEM (500 µ L total volume). The cells were incubated for 24 h, washed with PBS and the viability assessed.
Background: Alamar Blue is a resazurin reagent that responds to reducing activity.

Test [2] has as its system Mel 202 cells. The experiment in a line: Cell cycle analysis by flow cytometry (propidium iodide). The format is cell-based. The following applies: Mel 202 cells harvested after treatment; SN38 25 nM; free (not on nanoparticles). The protocol: The samples were trypsinized (BioWest) and fixed with paraformaldehyde 1 % (v/v). The samples were stained for 3 h with 10 µ g/sample RNAsa A from Thermo Scientific and 20 µ g/sample propidium iodide from Sigma. The cell cycle analysis was performed in a Beckman coulter Cytomics 500 Flow cytometer and acquired data were analyzed with the Multicycle software.
These experiments were performed in cytometry service of Biotechnology National Centre of Spain.
For orientation: Flow cytometry measures light scatter and fluorescence of single cells or particles in a stream.

Molecules are shown by their SMILES.

As to `CCc1c2c(nc3ccc(O)cc13)-c1cc3c(c(=O)n1C2)COC(=O)[C@]3(O)CC` [SN38, 7-ethyl-10-hidroxycamptothecin], in the test on Mel 202 cells [1], the concentration for half-maximal inhibition (IC50) came out at 100 nM. Besides, the “effect on the cell cycle” value in the test with Mel 202 cells [2] is “significantly increases G2/M”.
